# Measured values from ChEMBL document CHEMBL1144961, “Identification of a novel antiangiogenic agent; 4-(N-imidazol-2-ylmethyl)amino benzopyran analogues” (Bioorg Med Chem Lett, 2003).
# Activity calls are given as the source filed them. The calls are words filed in the database; no cut-off is given here.
# Tests used:
# Homo sapiens [1] = organism: Homo sapiens; assay: Inhibitory effect on (HUVEC) human umbilical vein endothelial cell tube formation at a uM; ++ significant inhibition; format: functional
# Homo sapiens [2] = organism: Homo sapiens; assay: Inhibitory effect on (HUVEC) human umbilical vein endothelial cell tube formation at a uM; not assayed; format: functional
# Rattus norvegicus [3] = organism: Rattus norvegicus; assay: Vasorelaxant potency was measured by inhibition of […]-contracted rat aorta; format: functional
# Mus musculus [4] = assay: Antitumor efficacy against A549 human non -small cell lung carcinoma was tested in nude mice xenografts at 50 mg/kg on 25th day (i.p.); format: functional; conditions: route intraperitoneal
# Rattus norvegicus [5] = organism: Rattus norvegicus; assay: In vitro cardioprotective effect was evaluated by measuring the contractile function LDH at a concentration of 10 uM;not assayed; format: functional; conditions: Heart
# Mus musculus [6] = assay: Antitumor efficacy against A549 human non -small cell lung carcinoma was tested in nude mice xenografts at 50 mg/kg on 35th day (i.p.); format: functional; conditions: route intraperitoneal
# Rattus norvegicus [7] = organism: Rattus norvegicus; assay: In vitro cardioprotective effect was evaluated by measuring the contractile function (LVDRxHR) at a concentration of 10 uM; format: functional, Heart
# Rattus norvegicus [8] = assay: In vivo anti-infarction effect by measuring the ratio of myocardial infarct zone to area at risk (IZ/AAR) in ischemic myocardium damage rat model at 0.3 mg/Kg;not assayed; format: functional, organism-based
# Rattus norvegicus [9] = organism: Rattus norvegicus; assay: In vitro cardioprotective effect was evaluated by measuring the contractile function TTC at a concentration of 10 uM; format: functional, Heart
# Mus musculus [10] = assay: Antitumor efficacy against A549 human non -small cell lung carcinoma was tested in nude mice xenografts at 50 mg/kg on 45th day (i.p.); format: functional; conditions: route intraperitoneal
# Mus musculus [11] = assay: Antitumor efficacy against A549 human non -small cell lung carcinoma was tested in nude mice xenografts at 50 mg/kg on 14th day (i.p.); format: functional; conditions: route intraperitoneal
# Mus musculus [12] = assay: Antitumor efficacy against A549 human non -small cell lung carcinoma was tested in nude mice xenografts at 50 mg/kg on 61th day (i.p.); format: functional; conditions: route intraperitoneal
# Rattus norvegicus [13] = organism: Rattus norvegicus; assay: In vitro cardioprotective effect was evaluated by measuring the contractile function EDP at a concentration of 10 uM; format: functional, Heart
# Mus musculus [14] = assay: Antitumor efficacy against A549 human non -small cell lung carcinoma was tested in nude mice xenografts at 50 mg/kg on 1st day (i.p.); format: functional; conditions: route intraperitoneal
# Rattus norvegicus [15] = assay: In vivo anti-infarction effect by measuring the ratio of myocardial infarct zone to area at risk (IZ/AAR) in ischemic myocardium damage rat model at 0.3 mg/Kg; format: functional
# Rattus norvegicus [16] = organism: Rattus norvegicus; assay: In vitro cardioprotective effect was evaluated by measuring the contractile function LDH at a concentration of 10 uM; format: functional, Heart
smiles,measurement,setting,value
COC(OC)[C@@]1(C)Oc2ccc(N)cc2[C@@H](N(Cc2ncc[nH]2)c2ccc(Cl)cc2)[C@@H]1O,inhibition,Homo sapiens [1],Significant inhibition
COC(OC)[C@@]1(C)Oc2ccc(N)cc2[C@H](N(Cc2ncc[nH]2)c2ccc(Cl)cc2)[C@H]1O,inhibition,Homo sapiens [1],Significant inhibition
COC(OC)[C@]1(C)Oc2ccc([N+](=O)[O-])cc2[C@@H](N(Cc2ncc[nH]2)c2ccc(OC(F)(F)F)cc2)[C@@H]1O,inhibition,Homo sapiens [2],inactive
COC(OC)[C@@]1(C)Oc2ccc(N)cc2[C@H](N(Cc2ncc[nH]2)c2ccc(OC(F)(F)F)cc2)[C@H]1O,inhibition,Homo sapiens [2],inactive
COc1ccc(N(Cc2ncc[nH]2)[C@H]2c3cc(N)ccc3O[C@](C)(C(OC)OC)[C@@H]2O)cc1,inhibition,Homo sapiens [2],inactive
COC(OC)[C@]1(C)Oc2ccc(N)cc2[C@H](N(Cc2ncc[nH]2)c2ccc(Cl)cc2)[C@H]1O,inhibition,Homo sapiens [2],inactive
COC(OC)[C@]1(C)Oc2ccc([N+](=O)[O-])cc2[C@@H](N(Cc2ncc[nH]2)c2ccc(Br)cc2)[C@@H]1O,inhibition,Homo sapiens [2],inactive
COC(OC)[C@]1(C)Oc2ccc([N+](=O)[O-])cc2[C@@H](N(Cc2ncc[nH]2)c2ccc(Cl)cc2)[C@@H]1O,inhibition,Homo sapiens [1],Significant inhibition
COC(OC)[C@]1(C)Oc2ccc([N+](=O)[O-])cc2[C@@H](N(Cc2ncc[nH]2)c2ccc(C(F)(F)F)cc2)[C@@H]1O,inhibition,Homo sapiens [2],inactive
COC(OC)[C@]1(C)Oc2ccc(N)cc2[C@@H](N(Cc2ncc[nH]2)c2ccc(Cl)cc2)[C@@H]1O,IC50,Rattus norvegicus [3],> 30 µM
same,inhibition in vivo at 50 mg/kg,"Mus musculus [4]; A549, ip",39.7%
same,Body weight,Mus musculus [4],26.17 g
same,Tumor volume,Mus musculus [4],92.2 mm**3
same,LDH,Rattus norvegicus [5],inactive
same,inhibition in vivo at 50 mg/kg,"Mus musculus [6]; A549, ip",39.5%
same,Body weight,Mus musculus [6],27.1 g
same,Tumor volume,Mus musculus [6],186.8 mm**3
same,LV DRxHR,Rattus norvegicus [7],19.3%
same,IZ/AAR / AAR/LV,Rattus norvegicus [8],inactive
same,TTC,Rattus norvegicus [9],23.5 min
same,inhibition in vivo at 50 mg/kg,"Mus musculus [10]; A549, ip",49.5%
same,Tumor volume,Mus musculus [10],244.3 mm**3
same,Body weight,Mus musculus [11],25.42 g
same,inhibition in vivo at 50 mg/kg,"Mus musculus [12]; A549, ip",52.2%
same,Tumor volume,Mus musculus [12],494.8 mm**3
same,EDP,Rattus norvegicus [13],62.3 mmHg
same,Body weight,Mus musculus [14],22.3 g
COC(OC)[C@@]1(C)Oc2ccc([N+](=O)[O-])cc2[C@@H](N(Cc2ncc[nH]2)c2ccc(Cl)cc2)[C@@H]1O,IC50,Rattus norvegicus [3],> 30 µM
same,LV DRxHR,Rattus norvegicus [7],55.7%
same,TTC,Rattus norvegicus [9],20.3 min
same,IZ/AAR / AAR/LV,Rattus norvegicus [15],41%
same,EDP,Rattus norvegicus [13],14 mmHg
same,LDH,Rattus norvegicus [16],10.7 U g-1
same,inhibition,Homo sapiens [1],Significant inhibition
